US9062028B2, “Bicyclic nitrogen containing heteroaryl TGR5 receptor modulators” (Bristol-Myers Squibb Company, priority 2011, dated 2015)
Structures can show the parent of a compound that is named as a salt.

Each compound was assayed against T1, recombinant human TGR5 (Homo sapiens, UniProt Q8TDU6) (assay: cAMP assay (cAMP accumulation, HTRF) in CHOK1 cells stably expressing TGR5). Conditions: CHOK1 cells stably expressing human TGR5, 30 minutes at RT, 1% DMSO.
T1 construct: expressed in transfected cells
T1 sequence (Q8TDU6 1-330): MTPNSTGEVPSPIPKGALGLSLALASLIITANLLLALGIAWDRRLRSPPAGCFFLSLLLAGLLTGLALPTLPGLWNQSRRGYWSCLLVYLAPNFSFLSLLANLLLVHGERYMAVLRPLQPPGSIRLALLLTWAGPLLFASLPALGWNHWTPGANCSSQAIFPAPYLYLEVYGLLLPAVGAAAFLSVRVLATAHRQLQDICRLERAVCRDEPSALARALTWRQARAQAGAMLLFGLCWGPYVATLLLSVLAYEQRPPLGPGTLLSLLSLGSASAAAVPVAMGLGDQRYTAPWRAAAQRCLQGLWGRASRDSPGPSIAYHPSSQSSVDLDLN
Format: cell-based
Experimental: The in vitro modulation of recombinant human TGR5 was determined as follows.
A human TGR5 expression construct of human TGR5 was integrated into the genome of a CHOK1 cell line (Invitrogen). Once a stable CHOK1 cell line was generated, the cells were incubated for 5-10 minutes in culture medium consisting of F-12 (Invitrogen#11765-047) supplemented with 10% fetal bovine serum.
On the day of the cAMP accumulation assay, cells stably expressing the […] TGR5 construct were centrifuged at 1000 rpm for 5 minutes. The medium was aspirated and the cells were resuspended in 5 mL of assay buffer (phosphate-buffered saline with Ca^2+ and Mg^2+, Invitrogen#14040). The cells were counted using 1:2 dilution and then adjusted to 0.4-0.5×10^6 cells/mL in assay buffer, if necessary. Isobutylmethylxanthine (IBMX, Sigma#I5879) was added via a 1:5000 dilution to make a 0.1 mM final concentration and then 10 μL of the media were transferred to each well of a 384 well poly-D-lysine coated solid white plate (BD #35-6661) pre-dotted with 100 nL of with the desired concentration of compound added from a concentrated stock dissolved in dimethyl sulfoxide (DMSO) to give a final concentration of 1% DMSO in the assay. The plates were covered and incubated for 30 minutes at RT. cAMP accumulation was measured using the CisBio homogeneous time resolved fluorescence (HTRF) assay kit (#62AM2PEC) following the manufacturer's protocol. Briefly, 5 μl each of the cAMP-HTRF fluorescence detection reagents were added to each well, and the samples were incubated for at least one hour at room temperature. Fluorescence was excited at 320 nm and measured at 665 and 620 nm using the Envision instrument (Perkin Elmer), the fluorescence ratio of 665/620 was calculated and converted to nanomolar concentrations of cAMP in each well by interpolation from a cAMP standard curve. The concentration-response curves and EC50 values were calculated with a four parameter logistic curve fit equation utilizing Excel/XLfit software (Microsoft and IDBS). The EC50 value was calculated as the concentration of agonist which increased the cAMP concentration to a value halfway between the baseline and the maximum.

SMILES | EC50
Cc1cccc(OCCCC(=O)N2CCCc3c(-c4cnn(Cc5c(F)cc(C(=O)NCCC[C@H](NC(=N)N)C(=O)O)cc5Cl)c4)cccc32)c1C [Example 171, (S)-5-(3-Chloro-4-((4-(1-(4-(2,3-dimethylphenoxy)butanoyl)-1,2,3,4-tetrahydroquinolin-5-yl)-1H-pyrazol-1-yl)methyl)-5-fluorobenzamido)-2-guanidinopentanoic acid, TFA salt] | 56 nM
Cc1cccc(OCCCC(=O)N2CCCc3c(-c4ccn(Cc5cccc(C(=O)NCCS(=O)(=O)O)c5)c4)cccc32)c1C [Example 168N] | 4370 nM
Cc1c(Cl)cccc1OCCOC(=O)N1CCSc2c(-c3cnn(Cc4cccc(OCC(=O)O)c4)c3)cccc21 [Example 375, 2-(3-((4-(4-((2-(3-Chloro-2-methylphenoxy)ethoxy)carbonyl)-3,4-dihydro-2H-benzo[b][1,4]thiazin-8-yl)-1H-pyrazol-1-yl)methyl)phenoxy)acetic acid] | 188 nM
Cc1c(Cl)cccc1OCCCC(=O)N1CCSc2c(-c3cnn(Cc4cccc(C(=O)NCC(=O)O)c4)c3)cccc21 [Example 566, 2-(3-((4-(4-(4-(3-Chloro-2-methylphenoxy)butanoyl)-3,4-dihydro-2H-benzo[b][1,4]thiazin-8-yl)-1H-pyrazol-1-yl)methyl)benzamido)acetic acid] | 35 nM
Cc1cccc(OCCCC(=O)N2C[C@H]3C[C@H]3c3c(-c4cnn(Cc5cccc(NC(=O)NCC(=O)O)c5)c4)cccc32)c1C (single isomer, unassigned) [Example 251] | 644 nM
Cc1cccc(OCCCC(=O)N2C[C@H]3C[C@H]3c3c(-c4cnn(Cc5cccc(NC(=O)NCCC(=O)O)c5)c4)cccc32)c1C (single isomer, unassigned) [Example 249] | 660 nM
Cc1c(Cl)cccc1OCCCC(=O)N1C[C@@H]2C[C@@H]2c2c(-c3cnn(Cc4cccc(N5C(=O)CN(CC(=O)O)C5=O)c4)c3)cccc21 [Example 350, 2-(3-(3-((4-((1aR,7bS)-3-(4-(3-Chloro-2-methylphenoxy)butanoyl)-1a,2,3,7b-tetrahydro-1H-cyclopropa[c]quinolin-7-yl)-1H-pyrazol-1-yl)methyl)phenyl)-2,4-dioxoimidazolidin-1-yl) acetic acid] | 31 nM
Cc1c(Cl)cccc1OCCCC(=O)N1CCSc2c(-c3cnn(Cc4cccc(C(=O)NCCS(=O)(=O)O)c4)c3)cccc21 [Example 564, 2-(3-((4-(4-(4-(3-Chloro-2-methylphenoxy)butanoyl)-3,4-dihydro-2H-benzo[b][1,4]thiazin-8-yl)-1H-pyrazol-1-yl)methyl)benzamido) ethanesulfonic acid] | 49 nM
Cc1cccc(OCCCC(=O)N2CCCc3c(-c4cnn(Cc5cncc(C(=O)O)c5)c4)cccc32)c1C [Example 359, 5-((4-(1-(4-(2,3-Dimethylphenoxy)butanoyl)-1,2,3,4-tetrahydroquinolin-5-yl)-1H-pyrazol-1-yl)methyl) nicotinic acid, TFA salt] | 1650 nM
Cc1c(Cl)cccc1OCCOC(=O)N1C[C@@H]2C[C@@H]2c2c(-c3cnn(Cc4cccc(NC(=O)NCS(=O)(=O)O)c4)c3)cccc21 [Example 527, (3-(3-((4-((1aR,7bS)-3-((2-(3-Chloro-2-methyl-phenoxy)ethoxy)carbonyl)-1a,2,3,7b-tetrahydro-1H-cyclopropa[c]quinolin-7-yl)-1H-pyrazol-1-yl)methyl)phenyl)ureido) methanesulfonic acid] | 184 nM

Other lines, results leading:

EC50 | SMILES
46 nM | Cc1c(Cl)cccc1OCCCC(=O)N1CCSc2c(-c3cnn(Cc4cccc(C(=O)N[C@@H](CC(N)=O)C(=O)O)c4)c3)cccc21 [Example 614, (S)-4-Amino-2-(3-((4-(4-(4-(3-chloro-2-methylphenoxy)butanoyl)-3,4-dihydro-2H-benzo[b][1,4]thiazin-8-yl)-1H-pyrazol-1-yl)methyl)benzamido)-4-oxobutanoic acid]
23 nM | Cc1c(Cl)cccc1OCCCC(=O)N1CCSc2c(-c3cnn(Cc4c(F)cc(C(=O)NCCS(=O)(=O)O)cc4Cl)c3)cccc21 [Example 574, 2-(3-Chloro-4-((4-(4-(4-(3-chloro-2-methylphenoxy)butanoyl)-3,4-dihydro-2H-benzo[b][1,4]thiazin-8-yl)-1H-pyrazol-1-yl)methyl)-5-fluorobenzamido) ethanesulfonic acid]
45 nM | Cc1cccc(OCCCC(=O)N2CCSc3c(-c4cnn(Cc5c(F)cc(C(=O)NCS(=O)(=O)O)cc5Cl)c4)cccc32)c1C [Example 578, (3-Chloro-4-((4-(4-(4-(2,3-dimethylphenoxy)butanoyl)-3,4-dihydro-2H-benzo[b][1,4]thiazin-8-yl)-1H-pyrazol-1-yl)methyl)-5-fluorobenzamido) methanesulfonic acid]
191 nM | Cc1cccc(NCCCC(=O)N2CCCc3c(-c4cnn(Cc5cccc(C(=O)O)c5)c4)cccc32)c1C [Example 934, 3-((4-(1-(4-(2,3-Dimethylphenylamino)butanoyl)-1,2,3,4-tetrahydroquinolin-5-yl)-1H-pyrazol-1-yl)methyl)benzoic acid, TFA salt]
42 nM | Cc1cccc(OCCCC(=O)N2CCSc3c(-c4cnn(Cc5cccc(C(=O)NCCO)c5)c4)cccc32)c1C [Example 600, 3-((4-(4-(4-(2,3-Dimethylphenoxy)butanoyl)-3,4-dihydro-2H-benzo[b][1,4]thiazin-8-yl)-1H-pyrazol-1-yl)methyl)-N-(2-hydroxyethyl) benzamide]
176 nM | Cc1cccc(OCCCC(=O)N2CCCc3c(-c4cnn(Cc5cccc(C(=O)N6CCCC(CO)C6)c5)c4)cccc32)c1C (stereo not shown) [Example 830, 4-(2,3-Dimethylphenoxy)-1-(5-(1-(3-(3-(hydroxymethyl)piperidine-1-carbonyl)benzyl)-1H-pyrazol-4-yl)-3,4-dihydroquinolin-1(2H)-yl)butan-1-one]
28 nM | Cc1c(Cl)cccc1OCCOC(=O)N1C[C@@H]2C[C@@H]2c2c(-c3cnn(Cc4cc(C(=O)NC5(CC(=O)O)COC5)ccc4Cl)c3)cccc21 [Example 698, 2-(3-(4-Chloro-3-((4-((1aR,7bS)-3-((2-(3-chloro-2-methylphenoxy)ethoxy)carbonyl)-1a,2,3,7b-tetrahydro-1H-cyclopropa[c]quinolin-7-yl)-1H-pyrazol-1-yl)methyl)benzamido)oxetan-3-yl)acetic acid]
2000 nM | Cc1c(Cl)cccc1Oc1cccc(C(=O)N2CCCOc3c(-c4cnn(Cc5c(F)cc(C(=O)NCCC(=O)O)cc5Cl)c4)cccc32)c1 [Example 815]
175 nM | Cc1c(Cl)cccc1OCCCC(=O)N1CCSc2c(-c3cnn(Cc4cccc(C(=O)N[C@@H](CC[N+](C)(C)C)C(=O)O)c4)c3)cccc21 [Example 617, (S)-3-Carboxy-3-(3-((4-(4-(4-(3-chloro-2-methylphenoxy)butanoyl)-3,4-dihydro-2H-benzo[b][1,4]thiazin-8-yl)-1H-pyrazol-1-yl)methyl)benzamido)-N,N,N-trimethylpropan-1-aminium, TFA salt]
1330 nM | Cc1c(Cl)cccc1OC(C)(C)COC(=O)N1CCCOc2c(-c3cnn(Cc4c(F)cc(C(=O)NCCS(=O)(=O)O)cc4Cl)c3)cccc21 [Example 807, 2-(3-Chloro-4-((4-(5-((2-(3-chloro-2-methylphenoxy)-2-methylpropoxy)carbonyl)-2,3,4,5-tetrahydrobenzo[b][1,4]oxazepin-9-yl)-1H-pyrazol-1-yl)methyl)-5-fluorobenzamido)ethanesulfonic acid]
1340 nM | Cc1c(Cl)cccc1OC(C)(C)COC(=O)N1CCCOc2c(-c3cnn(Cc4c(F)cc(C(=O)NCCC(=O)O)cc4Cl)c3)cccc21 [Example 808, 3-(3-Chloro-4-((4-(5-((2-(3-chloro-2-methylphenoxy)-2-methylpropoxy)carbonyl)-2,3,4,5-tetrahydrobenzo[b][1,4]oxazepin-9-yl)-1H-pyrazol-1-yl)methyl)-5-fluorobenzamido)propanoic acid]
26 nM | Cc1cccc(OCCCC(=O)N2C[C@@H]3C[C@@H]3c3c(-c4cnn(Cc5cccc(C(=O)N[C@H]6CCOC6=O)c5)c4)cccc32)c1C [Example 891, 3-((4-((1aR,7bS)-3-(4-(2,3-Dimethylphenoxy)butanoyl)-1a,2,3,7b-tetrahydro-1H-cyclopropa[c]quinolin-7-yl)-1H-pyrazol-1-yl)methyl)-N-((S)-2-oxotetrahydrofuran-3-yl)benzamide]
